In US20250120417A1, “FEED ADDITIVE COMPOSITIONS AND METHODS FOR USING THE SAME” (INT[…]&H DENMARK APS, priority 2021, published 2025):

Legend:
NetB toxin = assay type: cell-based, Clostridium perfringens strain 25037-CP01
netB gene = assay type: cell-based, Clostridium perfringens
HT-29 cells = assay type: cell-based, human

Row | Molecule | level of extracellular NetB toxin secreted into the media (NetB toxin) | netB expression / toxin producing population in single cell data (netB gene) | HT29 cell death (HT-29 cells)
1 | Cc1ncc(C[n+]2csc(CCO)c2C)c(N)n1 [Vitamin B1] | reduced | – | –
2 | Cc1ncc(CO)c(CO)c1O.Cl [Vitamin B6] | reduced | – | –
3 | N=C(N)NCCC[C@H](N)C(=O)O [arginine] | – | small reduction | –
4 | N[C@@H](CC(=O)O)C(=O)O [aspartic acid] | lower the level | marked reduction | less than 10%
5 | NCCC[C@H](N)C(=O)O [ornithine] | – | small reduction | –
6 | CC(=O)[O-].[Na+] [sodium acetate] | reduced | – | –
7 | Vitamin B12 | reduced | – | –
8 | ammonium phosphate | reduced | – | –
